In the supplement of paper PMC13380429:

Key:
Settings in all cases: 72 h
[1] = system: Calu-3; test: cell viability relative to DMSO; higher = less toxic
[2] = system: U2OS; test: as above
[3] = system: HepG2; test: as above
[4] = system: Caco-2; test: as above
[5] = system: Calu-3; test: drug sensitivity score (DSS) for viability; higher = more toxic; extreme values may be limits of the assay
[6] = system: U2OS; test: as above
[7] = system: HepG2; test: as above
[8] = system: Caco-2; test: as above
[9] = system: Calu-3; test: relative viability EC50 (midpoint between 100% and the lowest measured viability); higher = less toxic
[10] = system: U2OS; test: as above
[11] = system: HepG2; test: as above
[12] = system: Caco-2; test: as above
[13] = system: Vero E6; test: cell viability relative to DMSO; higher = less toxic
[14] = system: Vero E6; test: drug sensitivity score (DSS) for viability; higher = more toxic; extreme values may be limits of the assay

Compound | cell viability ([1]; 1 nM) [%] | cell viability ([1]; 10 nM) [%] | cell viability ([1]; 100 nM) [%] | cell viability ([1]; 1000 nM) [%] | cell viability ([1]; 10000 nM) [%] | cell viability ([2]; 1 nM) [%] | cell viability ([2]; 10 nM) [%] | cell viability ([2]; 100 nM) [%] | cell viability ([2]; 1000 nM) [%] | cell viability ([2]; 10000 nM) [%] | cell viability ([3]; 1 nM) [%] | cell viability ([3]; 10 nM) [%] | cell viability ([3]; 100 nM) [%] | cell viability ([3]; 1000 nM) [%] | cell viability ([3]; 10000 nM) [%] | cell viability ([4]; 1 nM) [%] | cell viability ([4]; 10 nM) [%] | cell viability ([4]; 100 nM) [%] | cell viability ([4]; 1000 nM) [%] | cell viability ([4]; 10000 nM) [%] | drug sensitivity score [5] | drug sensitivity score [6] | drug sensitivity score [7] | drug sensitivity score [8] | relative viability EC50 [9] [µM] | relative viability EC50 [10] [µM] | relative viability EC50 [11] [µM] | relative viability EC50 [12] [µM] | cell viability ([13]; 1 nM) [%] | cell viability ([13]; 10 nM) [%] | cell viability ([13]; 100 nM) [%] | cell viability ([13]; 1000 nM) [%] | cell viability ([13]; 10000 nM) [%] | drug sensitivity score [14]
CC(C)(C)c1cc(C(C)(C)C)c(NC(=O)c2c[nH]c3ccccc3c2=O)cc1O [ivacaftor] | 97.2 | 103 | 93.3 | 91.1 | 84.1 | 100 | 103 | 95.3 | 103 | 86.8 | 105 | 105 | 100 | 100 | 98.3 | 104 | 98.8 | 99.6 | 101 | 81.6 | 0.7 | 0.1 | 0 | 0.4 | > 10 | > 10 | > 10 | > 10 |  |  |  |  |  | 
COc1cc(S(C)(=O)=O)ccc1Nc1nc2ccc(-c3ccc(NC(=O)[C@H](C)c4ccc(F)cc4)cc3)cn2n1 [Mps1-IN-5] | 101 | 94.6 | 94.6 | 101 | 91.8 | 99.9 | 99.6 | 94.2 | 66.7 | 70.6 | 106 | 108 | 106 | 56.2 | 49.2 | 97.7 | 96.4 | 103 | 78.2 | 87.4 | 0 | 6.7 | 7.9 | 2.9 | > 10 |  | 0.508 | > 10 | 101 | 97 | 95.2 | 66.4 | 71.5 | 6.6
C1Cc2[nH]nc(-c3nn[nH]n3)c2C1 [MK-0354] | 99.8 | 92.7 | 91.6 | 112 | 101 | 101 | 96.2 | 103 | 96.7 | 103 | 102 | 98 | 95.6 | 105 | 95.4 | 97 | 91.1 | 95.2 | 88.9 | 102 | 0 | 0 | 0 | 0 | > 10 | > 10 | > 10 | > 10 |  |  |  |  |  | 
COC(=O)[C@H](Cc1ccccc1)NC(=O)[C@@H](N)CC(=O)O [aspartame] | 91.2 | 100 | 92.8 | 89.4 | 96.5 | 99.8 | 99.7 | 98.6 | 103 | 101 | 98.3 | 91.6 | 98.2 | 94.3 | 102 | 97.8 | 99.1 | 101 | 99.6 | 94 | 0 | 0 | 0 | 0 | > 10 | > 10 | > 10 | > 10 |  |  |  |  |  | 
O=P1(NCCCl)OCCCN1CCCl (centres undefined) [ifosfamide] | 95.2 | 104 | 97.7 | 95.5 | 88.7 |  |  |  |  |  | 107 | 98.1 | 95.9 | 102 | 109 | 104 | 107 | 94.1 | 95.4 | 101 | 0 |  | 0 | 0 | > 10 |  | > 10 | > 10 |  |  |  |  |  | 
CN1C[C@@H]2CN(c3ccc(-c4ccccc4)nn3)C[C@@H]2C1 | 90.3 | 100 | 97.6 | 98.6 | 91.6 |  |  |  |  |  | 104 | 97.3 | 110 | 98.9 | 96 | 105 | 104 | 101 | 103 | 99.5 | 0 |  | 0 | 0 | > 10 |  | > 10 | > 10 |  |  |  |  |  | 
